Data published in article doi:10.1101/2023.12.04.569845, “Identification of 4-(6-((2-methoxyphenyl)amino)pyrazin-2-yl)benzoic acids as CSNK2A inhibitors with antiviral activity and improved selectivity over PIM3” (bioRxiv, 2023).
Read-outs that look alike come from different tables or passages of the source. Each block holds one compound with its values, some of them ahead of it.

Assays:
Assay in all cases: biochemical
Design in all cases: Thermal shift (DSF, SYPRO Orange) Tm shift of recombinant kinase domains at 10 uM compound
[1] = biological target: T1, MARK4 (Homo sapiens, UniProt Q96L34)
T1 sequence (Q96L34 1-752): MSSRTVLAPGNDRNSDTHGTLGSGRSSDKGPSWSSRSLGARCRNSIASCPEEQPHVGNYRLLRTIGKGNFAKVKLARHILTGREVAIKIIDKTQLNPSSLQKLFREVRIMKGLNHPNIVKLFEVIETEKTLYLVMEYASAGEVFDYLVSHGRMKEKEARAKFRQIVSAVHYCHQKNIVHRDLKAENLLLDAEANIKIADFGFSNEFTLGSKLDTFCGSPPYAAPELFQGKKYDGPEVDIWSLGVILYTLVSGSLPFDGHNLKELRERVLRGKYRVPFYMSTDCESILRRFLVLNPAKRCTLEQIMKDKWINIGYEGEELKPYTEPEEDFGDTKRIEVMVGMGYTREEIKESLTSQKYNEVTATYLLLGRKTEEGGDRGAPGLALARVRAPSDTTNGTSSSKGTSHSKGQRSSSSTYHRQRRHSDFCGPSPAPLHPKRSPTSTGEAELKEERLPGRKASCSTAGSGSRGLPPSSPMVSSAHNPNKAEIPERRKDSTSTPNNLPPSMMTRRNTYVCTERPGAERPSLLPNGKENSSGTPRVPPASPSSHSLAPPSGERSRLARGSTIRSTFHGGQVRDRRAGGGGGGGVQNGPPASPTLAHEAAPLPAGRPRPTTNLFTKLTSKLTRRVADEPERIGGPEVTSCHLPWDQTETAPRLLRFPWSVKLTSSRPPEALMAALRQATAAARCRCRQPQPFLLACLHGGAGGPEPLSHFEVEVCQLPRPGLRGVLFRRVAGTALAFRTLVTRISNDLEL

[2] = biological target: CAMK2D (Homo sapiens, UniProt Q13557)
CAMK2D, sequence (Q13557 whole entry): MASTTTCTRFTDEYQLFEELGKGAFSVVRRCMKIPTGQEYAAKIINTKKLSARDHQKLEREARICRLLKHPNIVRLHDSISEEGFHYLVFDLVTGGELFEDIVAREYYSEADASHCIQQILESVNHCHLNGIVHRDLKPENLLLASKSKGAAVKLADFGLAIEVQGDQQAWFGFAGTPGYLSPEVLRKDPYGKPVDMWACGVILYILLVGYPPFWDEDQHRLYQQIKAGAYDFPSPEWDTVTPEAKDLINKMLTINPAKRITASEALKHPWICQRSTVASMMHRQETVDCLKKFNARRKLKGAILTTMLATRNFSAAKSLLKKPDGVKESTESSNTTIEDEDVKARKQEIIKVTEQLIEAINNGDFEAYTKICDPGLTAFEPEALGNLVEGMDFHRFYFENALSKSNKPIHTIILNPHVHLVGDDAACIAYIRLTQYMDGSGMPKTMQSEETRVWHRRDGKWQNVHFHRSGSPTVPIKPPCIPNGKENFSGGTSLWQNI

[3] = biological target: EPHA7 (Homo sapiens, UniProt Q15375)
EPHA7, sequence (Q15375 whole entry): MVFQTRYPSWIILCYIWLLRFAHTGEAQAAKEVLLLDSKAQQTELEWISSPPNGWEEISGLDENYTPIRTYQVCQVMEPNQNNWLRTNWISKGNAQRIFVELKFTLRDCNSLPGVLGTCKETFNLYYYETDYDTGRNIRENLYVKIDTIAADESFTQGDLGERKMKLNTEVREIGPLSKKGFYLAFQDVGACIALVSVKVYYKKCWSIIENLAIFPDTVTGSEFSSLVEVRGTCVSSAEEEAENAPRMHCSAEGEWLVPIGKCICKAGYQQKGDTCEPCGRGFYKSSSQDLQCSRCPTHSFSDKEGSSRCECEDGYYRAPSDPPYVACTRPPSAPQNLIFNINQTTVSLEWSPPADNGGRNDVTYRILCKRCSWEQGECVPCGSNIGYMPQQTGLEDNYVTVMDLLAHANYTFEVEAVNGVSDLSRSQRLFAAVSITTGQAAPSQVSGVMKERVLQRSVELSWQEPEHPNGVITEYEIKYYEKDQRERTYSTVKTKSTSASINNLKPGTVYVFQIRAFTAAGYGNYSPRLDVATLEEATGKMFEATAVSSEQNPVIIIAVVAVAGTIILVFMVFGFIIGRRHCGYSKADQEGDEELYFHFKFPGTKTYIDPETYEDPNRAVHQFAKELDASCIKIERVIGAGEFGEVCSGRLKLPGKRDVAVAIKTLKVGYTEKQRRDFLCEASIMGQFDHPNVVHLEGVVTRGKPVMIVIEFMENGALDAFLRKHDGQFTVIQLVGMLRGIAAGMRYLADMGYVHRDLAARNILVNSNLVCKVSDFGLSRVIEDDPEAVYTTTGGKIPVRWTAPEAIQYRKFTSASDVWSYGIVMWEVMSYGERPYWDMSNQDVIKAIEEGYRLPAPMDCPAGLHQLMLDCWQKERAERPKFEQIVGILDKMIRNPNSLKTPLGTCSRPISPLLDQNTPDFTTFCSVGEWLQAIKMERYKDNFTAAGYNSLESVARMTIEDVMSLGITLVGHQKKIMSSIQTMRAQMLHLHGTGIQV

[4] = biological target: T2, EPHB1 (Homo sapiens, UniProt P54762)
T2 sequence (P54762 1-984): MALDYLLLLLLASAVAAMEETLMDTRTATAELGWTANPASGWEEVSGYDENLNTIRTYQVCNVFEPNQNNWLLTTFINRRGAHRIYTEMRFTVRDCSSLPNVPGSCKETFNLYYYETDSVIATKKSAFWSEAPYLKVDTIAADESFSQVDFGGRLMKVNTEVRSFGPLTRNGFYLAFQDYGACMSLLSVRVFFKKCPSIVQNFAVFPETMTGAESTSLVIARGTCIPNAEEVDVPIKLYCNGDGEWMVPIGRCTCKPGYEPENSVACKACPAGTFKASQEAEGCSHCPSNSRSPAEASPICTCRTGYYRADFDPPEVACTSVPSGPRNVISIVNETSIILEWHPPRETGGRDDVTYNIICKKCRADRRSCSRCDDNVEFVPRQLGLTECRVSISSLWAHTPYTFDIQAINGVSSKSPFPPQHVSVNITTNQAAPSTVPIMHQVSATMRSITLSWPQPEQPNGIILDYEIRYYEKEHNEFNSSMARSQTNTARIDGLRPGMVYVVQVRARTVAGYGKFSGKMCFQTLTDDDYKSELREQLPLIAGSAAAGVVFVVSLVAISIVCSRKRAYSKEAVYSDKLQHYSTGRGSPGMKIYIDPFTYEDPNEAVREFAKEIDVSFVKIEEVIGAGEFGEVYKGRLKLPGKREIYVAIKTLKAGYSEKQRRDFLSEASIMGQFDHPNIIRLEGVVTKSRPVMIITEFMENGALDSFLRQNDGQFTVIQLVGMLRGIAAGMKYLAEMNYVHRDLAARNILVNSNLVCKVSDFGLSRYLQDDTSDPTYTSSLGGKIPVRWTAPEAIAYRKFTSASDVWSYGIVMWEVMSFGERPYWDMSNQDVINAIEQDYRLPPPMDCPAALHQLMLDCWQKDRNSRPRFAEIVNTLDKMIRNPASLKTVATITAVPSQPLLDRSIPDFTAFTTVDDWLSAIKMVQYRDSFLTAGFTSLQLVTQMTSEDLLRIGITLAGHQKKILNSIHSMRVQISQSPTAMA

[5] = biological target: T3, TTK (Homo sapiens, UniProt P33981)
T3 sequence (P33981 1-857): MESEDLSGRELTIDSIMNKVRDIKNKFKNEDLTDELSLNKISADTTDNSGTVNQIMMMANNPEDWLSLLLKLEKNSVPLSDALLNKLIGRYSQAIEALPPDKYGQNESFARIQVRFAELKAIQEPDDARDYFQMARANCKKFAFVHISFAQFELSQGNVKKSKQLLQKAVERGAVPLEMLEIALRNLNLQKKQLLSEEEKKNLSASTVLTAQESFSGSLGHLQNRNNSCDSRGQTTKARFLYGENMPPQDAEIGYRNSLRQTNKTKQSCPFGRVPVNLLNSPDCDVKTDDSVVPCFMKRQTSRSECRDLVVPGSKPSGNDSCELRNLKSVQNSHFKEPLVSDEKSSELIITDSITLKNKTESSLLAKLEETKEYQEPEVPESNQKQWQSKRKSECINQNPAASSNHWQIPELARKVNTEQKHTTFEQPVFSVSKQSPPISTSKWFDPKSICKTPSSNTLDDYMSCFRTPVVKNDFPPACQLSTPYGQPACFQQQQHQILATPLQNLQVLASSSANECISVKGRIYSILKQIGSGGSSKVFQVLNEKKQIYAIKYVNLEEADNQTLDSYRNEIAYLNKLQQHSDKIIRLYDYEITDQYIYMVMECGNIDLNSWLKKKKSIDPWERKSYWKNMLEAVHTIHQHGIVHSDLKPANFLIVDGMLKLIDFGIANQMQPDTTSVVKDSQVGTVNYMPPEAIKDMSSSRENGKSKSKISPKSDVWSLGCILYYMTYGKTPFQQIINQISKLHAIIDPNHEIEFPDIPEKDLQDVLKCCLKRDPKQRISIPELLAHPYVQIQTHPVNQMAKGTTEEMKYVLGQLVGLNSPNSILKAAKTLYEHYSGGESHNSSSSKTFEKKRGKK

- ΔTm at 10 µM ([1]; read-out: 7c): 0 °C
- ΔTm at 10 µM ([2]; read-out: 7c): 0 °C
- ΔTm at 10 µM ([3]; read-out: 7c): 0 °C
- ΔTm at 10 µM ([4]; read-out: 7c): 1 °C
- ΔTm at 10 µM ([5]; read-out: 7c): 0 °C
SMILES: COc1ccc(OC(C)C)cc1Nc1cncc(-c2ccc(C(=O)O)cc2)n1 [7c]

- ΔTm at 10 µM ([1]; read-out: 6c): 1 °C
- ΔTm at 10 µM ([2]; read-out: 6c): 3 °C
- ΔTm at 10 µM ([3]; read-out: 6c): 1 °C
- ΔTm at 10 µM ([4]; read-out: 6c): 2 °C
- ΔTm at 10 µM ([5]; read-out: 6c): 1 °C
SMILES: CC(C)Oc1ccc2ccn(-c3cncc(-c4ccc(C(=O)O)cc4)n3)c2c1 [6c]

- ΔTm at 10 µM ([1]; read-out: 2): 1 °C
- ΔTm at 10 µM ([2]; read-out: 2): 3 °C
- ΔTm at 10 µM ([3]; read-out: 2): 2 °C
- ΔTm at 10 µM ([4]; read-out: 2): 2 °C
- ΔTm at 10 µM ([5]; read-out: 2): 1 °C
SMILES: CC(C)Nc1ccc2cnn(-c3cncc(-c4ccc(C(=O)O)cc4)n3)c2c1 [compound 2, 2]
